Assay results reported in paper PMC5557545 (PLoS ONE, 2017).

Legend:
[1] = system: endonuclease from detergent disrupted viral particles; set-up: method as in PMID 7695269; conditions: cited from earlier work
[2] = system: influenza virus transcription; conditions: cited from earlier work
[3] = target: influenza A polymerase acidic protein (PA), full length, N-terminal 3x FLAG tag (influenza A virus H1N1 strain A/PR/8) (UniProt P03433); assay: AUC

## O=C(O)C(=O)CC(=O)c1ccc(-c2ccccc2)cc1 [Compound A, 4-([1,1'-biphenyl]-4-yl)-2,4-dioxobutanoic acid]
[1]
  IC50: 3700 nM

## O=C(O)C(=O)CC(=O)C1(Cc2ccc(Cl)cc2)CCN(Cc2ccc(Cl)cc2)CC1 [Compound B, 4-(1,4-bis(4-chlorobenzyl)piperidin-4-yl)-2,4-dioxobutanoic acid]
[2]
  IC50: 1100 nM

## influenza A polymerase acidic protein (PA), full length, N-terminal 3x FLAG tag (from UniProt P03433 1-716) (natural protein)
[3]
  percent dimer: 10%
